Source: publication PMC9098912, “Molecular basis for inhibiting human glucose transporters by exofacial inhibitors” (Nature Communications, 2022)
“And” between values parts separate entries of the source, which are not always exact repeats. Equal values may be shown once. “Also recorded” adds a separate entry of the source.

How the values were obtained:
[1] = target: T1, GLUT3exo (GLUT3 S64W and I305W) (Homo sapiens, UniProt P11169, I305W/N43T/S64W); assay: biochemical; format: binding; conditions: GLUT3 dTrp mutant, log [CCB]
T1 construct: His10 (N); made in house; host or cells: Sf9 insect cells (baculovirus)
Procedure: Following the same principle for the engineering of XylE-WW, we introduced two Trp substitutions, S64W and I305W, on the extracellular segments of TM2 and TM8 of GLUT3, respectively. This variant will be referred to as GLUT3exo hereafter (Fig. 1a). The two bulky substituents were expected to trap GLUT3 in an outward-facing conformation.
(§1) All mutants were generated by standard PCR-based strategy.
(§2) Inhibitors with serial dilutions were mixed with indicated protein. […] MST analyses were conducted on a Monolith NT. […] The MST data was analyzed by Monolith NT.115.

[2] = target: T2, WT GLUT3 (Homo sapiens, UniProt P11169, N43T); assay: Microscale thermophoresis (MST) binding assay; set-up: Figure 1e middle: MST binding curve, Mean / Figure 1e right: MST binding curve, Mean / Figure 2c: MST binding curve, Mean: unit not given here; conditions: GLUT3, log [CCB]
T2 construct: His10 (N); made in house; host or cells: Sf9 insect cells (baculovirus)
T2 sequence (P11169 1-496 N43T): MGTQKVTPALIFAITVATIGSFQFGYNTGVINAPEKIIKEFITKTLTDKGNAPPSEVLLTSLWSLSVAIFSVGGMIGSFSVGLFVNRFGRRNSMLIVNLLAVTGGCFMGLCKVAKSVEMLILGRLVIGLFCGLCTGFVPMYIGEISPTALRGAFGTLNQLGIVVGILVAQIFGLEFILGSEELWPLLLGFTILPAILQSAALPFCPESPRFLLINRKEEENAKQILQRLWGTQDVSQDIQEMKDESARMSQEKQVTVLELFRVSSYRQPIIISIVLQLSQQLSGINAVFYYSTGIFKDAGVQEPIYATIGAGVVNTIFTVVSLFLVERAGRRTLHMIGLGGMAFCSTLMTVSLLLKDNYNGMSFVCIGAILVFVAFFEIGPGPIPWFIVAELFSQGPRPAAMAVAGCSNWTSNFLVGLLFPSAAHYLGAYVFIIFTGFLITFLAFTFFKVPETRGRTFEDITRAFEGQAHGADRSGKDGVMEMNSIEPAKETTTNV
Procedure: as §1, §2

[3] = target: T3, human glucose transporter GLUT1(N45T) (Homo sapiens, UniProt P11166, N45T); assay: Proteoliposome-based counterflow assay, inhibition of D-[2-3H]-glucose transport; format: biochemical; conditions: 100 μM inhibitor; for Figure S1c: transport activity in presence of inhibitor (value1-3) / Inhibition of glucose uptake: GLUT1; for Figure S1c: transport activity in presence of inhibitor (value1-3): 100 µM
T3 construct: made in house
T3 sequence (P11166 1-492 N45T): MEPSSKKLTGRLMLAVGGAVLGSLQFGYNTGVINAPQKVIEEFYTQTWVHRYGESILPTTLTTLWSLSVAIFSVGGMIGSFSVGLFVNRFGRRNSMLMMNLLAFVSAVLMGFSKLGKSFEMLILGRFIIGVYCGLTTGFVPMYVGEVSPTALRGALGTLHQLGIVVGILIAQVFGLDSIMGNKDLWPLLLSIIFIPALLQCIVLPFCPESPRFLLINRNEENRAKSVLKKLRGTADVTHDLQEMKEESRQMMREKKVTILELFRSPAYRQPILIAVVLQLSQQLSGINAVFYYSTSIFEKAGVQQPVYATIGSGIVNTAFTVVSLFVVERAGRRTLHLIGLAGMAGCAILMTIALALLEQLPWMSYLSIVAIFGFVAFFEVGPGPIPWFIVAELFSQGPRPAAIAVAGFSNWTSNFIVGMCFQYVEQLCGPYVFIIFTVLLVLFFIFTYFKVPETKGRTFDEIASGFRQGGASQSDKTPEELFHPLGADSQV
Procedure: as §1
(§3) All counterflow assays were performed at 25 °C. […] Liposome without protein was used as negative control.
(§4) All experiments were repeated at least three times.

[4] = target: T4, human GLUT3(N43T) (Homo sapiens, UniProt P11169, N43T); assay: as above; format: biochemical; conditions: 100 μM inhibitor; for Figure S1d: transport activity in presence of inhibitor (value1-3): three independent experiments, 100 µM
T4 construct: His10 (N); made in house; host or cells: Sf9 insect cells (baculovirus)
T4 sequence (P11169 1-496 N43T): T2 sequence (P11169 1-496 N43T)
Procedure: as §1, §3, §4

[5] = target: E. coli (strain O157:H7) D-xylose:proton symporter XylE (Escherichia coli O157:H7, UniProt P0AGF5); conditions: for Figure S1b: transport activity in presence of inhibitor (value1-3): 100 µM
Procedure: The recombinant human glucose transporter GLUT1(N45T) and E. coli (strain O157:H7) D-xylose:proton symporter XylE were expressed and purified as described previously[17],[26]. […] In brief, the cDNA of human GLUT3 was cloned into a modified pFastBac vector (Invitrogen) fused with an N-terminal His10 tag. All mutants were generated by standard PCR-based strategy.
E. coli polar lipids (Avanti) were dissolved, dried, and resuspended to a final concentration of 20 mg/ml with the KPM 6.5 buffer (50 mM potassium phosphate, 2 mM MgSO4; pH 6.5) supplemented with 50 mM D-glucose or xylose (Sigma). After freeze-and-thaw with liquid nitrogen, the liposomes were extruded through 0.4 μm polycarbonate membranes (Millipore) and incubated with 1% n-octyl-β-d-glucoside (β-OG; Anatrace) at 4 °C for 30 min. Purified protein was incubated with liposomes at a ratio of ~1:100 (w/w) for 60 min. Then β-OG was removed by incubating with Bio-Beads SM2 (Bio-Rad) overnight. The proteoliposomes were subject to freeze-and-thaw again and extruded through 0.4 μm polycarbonate membranes. The homogenized proteoliposomes were ultracentrifuged at 100,000 g at 4 °C for 1 h and rinsed twice with the ice cold KPM 6.5 buffer. Finally, the proteoliposomes were resuspended in the KPM 6.5 buffer to a final concentration of 100 mg/ml (phospholipids).
All counterflow assays were performed at 25 °C. For each assay, an aliquot of 2 μl proteoliposomes was added into 98 μl KPM 6.5 buffer plus 1 μCi D-[2-^3H] glucose (specific radioactivity 23.4 Ci/mmol, PerkinElmer) or D-[^3H] xylose (20 Ci/mmol, American Radiolabeled Chemicals, Inc.). The final concentrations of the external D-[2-^3H] glucose and D-[^3H] xylose were 0.42 μM and 0.5 μM, respectively. Uptake of radio-labeled substrates was terminated at 30 s by rapidly filtering the solution through 0.22 μm GSTF filters (Millipore) and washed with 2.5 ml KPM 6.5 buffer. The filter was solubilized with 0.5 ml Optiphase HISAFE 3 (PerkinElmer) for 30 min for liquid scintillation counting with MicroBeta JET (PerkinElmer). Liposome without protein was used as negative control.
For inhibition assays, an aliquot of 2 μL proteoliposome pre-incubated with 100 μM indicated inhibitors for 0.5 h on ice was added to 98 μL KPM buffer containing 1 μCi D-[2-^3H]-glucose or D-[^3H] xylose with 100 μM inhibitors. To determine the IC50 of the inhibitor, a series of concentrations of the inhibitor was applied as indicated.
All experiments were repeated at least three times. Data for liposome-based counterflow assay were analyzed using GraphPad Prism 6.

[6] = target: T4, human GLUT3(N43T); conditions: 50 mM maltose, cited from earlier work
[7] = target: T3, human glucose transporter GLUT1(N45T); conditions: 50 mM maltose, cited from earlier work

E. coli (strain O157:H7) D-xylose:proton symporter XylE, sequence (P0AGF5 whole entry, the tested form may be a part): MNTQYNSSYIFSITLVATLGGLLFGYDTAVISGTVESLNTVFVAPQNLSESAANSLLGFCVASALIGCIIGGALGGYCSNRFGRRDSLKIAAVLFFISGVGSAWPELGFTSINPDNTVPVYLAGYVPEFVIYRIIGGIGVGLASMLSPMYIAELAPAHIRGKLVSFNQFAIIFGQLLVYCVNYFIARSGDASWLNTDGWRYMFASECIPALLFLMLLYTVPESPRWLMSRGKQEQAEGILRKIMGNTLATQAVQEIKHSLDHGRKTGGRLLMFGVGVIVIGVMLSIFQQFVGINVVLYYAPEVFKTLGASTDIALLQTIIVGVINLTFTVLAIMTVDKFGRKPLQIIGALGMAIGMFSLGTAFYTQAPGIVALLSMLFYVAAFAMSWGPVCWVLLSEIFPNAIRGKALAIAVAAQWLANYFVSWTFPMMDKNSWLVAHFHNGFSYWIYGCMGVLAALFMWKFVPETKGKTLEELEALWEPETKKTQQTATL
T1 sequence (P11169 whole entry N43T/S64W/I305W): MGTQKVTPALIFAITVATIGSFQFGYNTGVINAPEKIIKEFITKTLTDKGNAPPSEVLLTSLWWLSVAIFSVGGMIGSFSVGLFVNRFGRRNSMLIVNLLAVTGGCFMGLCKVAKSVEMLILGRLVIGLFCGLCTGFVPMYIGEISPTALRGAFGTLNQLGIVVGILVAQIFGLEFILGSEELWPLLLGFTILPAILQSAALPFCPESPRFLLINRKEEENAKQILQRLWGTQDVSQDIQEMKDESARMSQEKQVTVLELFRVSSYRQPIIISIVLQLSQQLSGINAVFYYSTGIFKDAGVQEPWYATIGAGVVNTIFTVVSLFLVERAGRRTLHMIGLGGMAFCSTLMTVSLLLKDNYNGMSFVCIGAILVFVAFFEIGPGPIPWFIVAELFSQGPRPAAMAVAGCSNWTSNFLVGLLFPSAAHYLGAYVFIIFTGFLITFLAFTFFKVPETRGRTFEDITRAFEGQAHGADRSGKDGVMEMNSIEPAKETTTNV

SMILES: C=C1[C@@H](C)[C@H]2[C@H](Cc3ccccc3)NC(=O)[C@]23OC(=O)/C=C/[C@H](O)CCC[C@@H](C)C/C=C/[C@H]3[C@@H]1O [CCB, cytochalasin B]
- Figure 1e middle: MST binding curve, Mean ([1]; M -3.69897): 12.3879
- Figure 1e middle: MST binding curve, Mean ([1]; M -4): 6.9876
- Figure 1e middle: MST binding curve, Mean ([1]; M -4.30103): 10.2535
- Figure 1e middle: MST binding curve, Mean ([1]; M -4.60206): 7.6812
- Figure 1e middle: MST binding curve, Mean ([1]; M -4.90309): 5.043
- Figure 1e middle: MST binding curve, Mean ([1]; M -5.20412): 1.714
- Figure 1e middle: MST binding curve, Mean ([1]; M -5.50515): 6.889
- Figure 1e middle: MST binding curve, Mean ([1]; M -5.80618): 3.628
- Figure 1e middle: MST binding curve, Mean ([1]; M -6.10721): 6.7864
- Figure 1e middle: MST binding curve, Mean ([1]; M -6.40824): 7.2964
- Figure 1e middle: MST binding curve, Mean ([1]; M -6.70927): 7.035
- Figure 1e middle: MST binding curve, Mean ([1]; M -7.0103): 6.292
- Figure 1e middle: MST binding curve, Mean ([1]; M -7.31133): 16.166
- Figure 1e middle: MST binding curve, Mean ([1]; M -7.61236): 24.9543
- Figure 1e middle: MST binding curve, Mean ([1]; M -7.91339): 19.4149
- Figure 1e middle: MST binding curve, Mean ([1]; M -8.21442): 19.7489
- Figure 1e middle: MST binding curve, Mean ([2]; M -5.20412): 94.2771
- Figure 1e middle: MST binding curve, Mean ([2]; M -5.50515): 91.6933
- Figure 1e middle: MST binding curve, Mean ([2]; M -5.80618): 73.4039
- Figure 1e middle: MST binding curve, Mean ([2]; M -6.10721): 45.8611
- Figure 1e middle: MST binding curve, Mean ([2]; M -6.40824): 32.1651
- Figure 1e middle: MST binding curve, Mean ([2]; M -7.0103): 19.0619
- Figure 1e middle: MST binding curve, Mean ([2]; M -7.31133): 12.7467
- Figure 1e middle: MST binding curve, Mean ([2]; M -7.61236): 11.0147
- Figure 1e middle: MST binding curve, Mean ([2]; M -7.91339): 6.7796
- Figure 1e middle: MST binding curve, Mean ([2]; M -8.51545): 9.6216
- Figure 1e middle: MST binding curve, Mean ([2]; M -8.81648): 7.333
- Figure 1e middle: MST binding curve, Mean ([2]; M -9.11751): 0.514
- Figure S1c: transport activity in presence of inhibitor (value1-3) ([3]; three independent experiments): 7.4821 and 5.9756
- activity at 100 µM ([3]; read-out: Figure S1c: transport activity in presence of inhibitor (value1-3), GLUT1, three independent experiments): 5.88%

SMILES: COC1OC(CO)C(O)C(O)C1OC(=O)c1cc(Cl)c(OCc2nc3ccccc3n2C(C)C)c(Cl)c1 (stereo not shown) [SA2]
- Inhibition of glucose uptake [3]: almost completely abolished
- Figure S1c: transport activity in presence of inhibitor (value1-3) ([3]; three independent experiments): 23.4003 and 23.4095 and 22.1495
- Inhibition of glucose uptake [4]: almost completely abolished
- Figure S1d: transport activity in presence of inhibitor (value1-3) [4]: 15.2946 and 13.6199 and 13.8419
- Inhibition of xylose transport [5]: moderately inhibited
- Figure S1b: transport activity in presence of inhibitor (value1-3) [5]: 58.0461 and 66.7656 and 51.1774

SMILES: CCOC(=O)c1c(C)c(Cl)c(OC(=O)c2c(C)c(Cl)c(O)c(Cl)c2OC)c(Cl)c1OC [SA5]
- Figure S1c: transport activity in presence of inhibitor (value1-3) ([3]; three independent experiments): 101.106 and 93.647 and 95.1991
- Figure S1d: transport activity in presence of inhibitor (value1-3) [4]: 105.451 and 87.0011 and 100.662
- Figure S1b: transport activity in presence of inhibitor (value1-3) [5]: 86.3087 and 90.0117 and 94.9979

SMILES: C#CCCC(=O)Nc1cccc(COc2c(Cl)cc(C(=O)OC3C(OC)OC(CO)C(O)C3O)cc2OC)c1 (stereo not shown) [SA3]
- Inhibition of glucose uptake [3]: mildly inhibited
- Figure S1c: transport activity in presence of inhibitor (value1-3) ([3]; three independent experiments): 52.3152 and 50.1788 and 49.4073
- Inhibition of glucose uptake [4]: mildly inhibited
- Figure S1d: transport activity in presence of inhibitor (value1-3) [4]: 34.7779 and 38.4924 and 41.7666
- Figure S1b: transport activity in presence of inhibitor (value1-3) [5]: 88.5699 and 92.3449 and 87.2521

SMILES: COc1ccccc1N1CCN(c2ncnc3c2cnn3-c2cccc(CN)c2)CC1 [SA6]
- Inhibition of glucose uptake [3]: almost completely abolished
- Figure S1c: transport activity in presence of inhibitor (value1-3) ([3]; three independent experiments): 5.6059 and 7.7469 and 6.8521
- Inhibition of glucose uptake [4]: almost completely abolished
- Figure S1d: transport activity in presence of inhibitor (value1-3) [4]: 8.1554 and 7.7188 and 4.7344
- Figure S1b: transport activity in presence of inhibitor (value1-3) [5]: 95.2845 and 101.756 and 111.538

SMILES: OC[C@H]1O[C@H](O[C@H]2[C@H](O)[C@@H](O)C(O)O[C@@H]2CO)[C@H](O)[C@@H](O)[C@@H]1O (mixture of isomers) [maltose]
- Inhibition of glucose transport ([6]; ref 18 (Deng et al., 2015)): could not be completely blocked; also recorded: cannot completely inhibit
- Preserved transport activity ([6]; ref Deng et al., 2015): one quarter
- Inhibition of glucose transport ([7]; ref 18 (Deng et al., 2015)): could not be completely blocked; also recorded: cannot completely inhibit
- Preserved transport activity ([7]; ref Deng et al., 2015): one third

SMILES: COc1c(Cl)c(OCc2ccccc2)c(Cl)c(C)c1C(=O)OC1C(OC)OC(CO)C(O)C1O (stereo not shown) [SA4]
- Inhibition of glucose uptake [3]: almost completely abolished
- Figure S1c: transport activity in presence of inhibitor (value1-3) ([3]; three independent experiments): 12.2388 and 8.7146 and 10.3352
- Inhibition of glucose uptake [4]: almost completely abolished
- Figure S1d: transport activity in presence of inhibitor (value1-3) [4]: 6.3677 and 8.1365 and 7.922
- Figure S1b: transport activity in presence of inhibitor (value1-3) [5]: 106.928 and 95.1823 and 98.9097
